Experiments:
[1] = Substrate (ligand) specificity of […]s; format: biochemical; settings: for fluorescence response of GECFINDER to each substrate, AVE of 3 repeats: Supplementary Fig. 3 c, substrate specificity; for AVE of Repeat 1-3, sensor signal with ligand (Supplementary Fig. 7 c): 1 mM ligand, Control AVE 12117.3
Procedure: Fig. 4 Engineering ligand specificity of GrsA-PheA for generating […]s. a The selectivity-conferring code of Phe and Leu A domains. b–f Dose–response curve of purified […]s with increasing concentrations of ligands in 100 mM Tris-HCl buffer (pH=7.5). All data shown are means ± S.D. (n = 3 biologically independent samples). g A series of […] reactions was tested to show the […]’s specificity with 20 proteinogenic amino acids. The values on the heatmap represent the ΔF/F0 value normalized to each […]’s maximal ΔF/F0 value ((ΔF/F0)/maximal ΔF/F0). The concentrations of 20 amino acids were 100 μM. The color indicates the average value of three independent biological replicates after 15 min. All data shown are means ± S.D. (n = 3 biologically independent samples). Source data are provided as a Source data file.
Ligand specificity is an important biosensors feature. Generally, the NRPS A domains have high specificity for their substrates because they are the first “gatekeeper” of NRPSs and ensure that the correct monomers are activated and thioesterified[32],[33]. Therefore, we speculated that this property would be inherited by our […]s because the ligand-binding pockets were unchanged during the […] creation process. Twenty proteinogenic amino acids were used to test the ligand specificity of […]s. […] We also investigated the dependence of […]s on Mg^2+ and ATP (Supplementary Fig. 4). […] This phenomenon corroborates with the distinct conformational changes observed in Hinge A of Nt4CL2 (Mg^2++ATP) (PDB ID: 5BSM) and Nt4CL2 (Coumaroyl-AMP) (PDB ID: 5BST) reported in the literature (Supplementary Fig. 4k), where the direction of motion in hinge A differs. […] During the determination of quantum yield, we observed that the absolute quantum yield of the […] variants ranged from 0.3 to 0.6 upon addition of the respective substrates, which show no significant difference with that reported in literature. The specific values are provided in Supplementary Table 2.
The study conducted dose–response curve, substrate specificity, and fluorescent spectrum analyses in 100-mM Tris buffer (pH = 7.5), while pH stability experiments were performed in 100-mM Tris buffer at three different pH values (6.5, 7.5, and 8.5) at room temperature. […] protein at a concentration of 0.75 μM, various small molecule concentrations, 1 mM ATP, and 2.5 mM MgCl2 were used in the experiments. Fluorescent signals were detected using a Microplate Reader (Synergy H4, Bio Tek) at an excitation/emission wavelength of 460 nm/510 nm or 480 nm/510 nm. The dose-response curve was determined immediately after the addition of the analyte. The total duration of the measurement was 15 min, with readings taken at one-minute intervals. The dose-response curve was plotted using the fluorescence values obtained after achieving stability in the fluorescence signal. The dose-response curves were fitted using the logistic model LOGISTIC5 available in Origin 2021, which could provide a more adequate fit to asymmetric dose-response data[62],[63]. Excitation spectra were scanned from 300 to 540 nm with a step size of 5 nm, and the emission wavelength was set to 560 nm. Emission spectra were scanned from 470 to 700 nm with a step size of 5 nm, and the excitation wavelength was set to 450 nm. The thermal stability of […] was analyzed using the UNcle multifunctional protein stability analysis system. Measurements were performed in 20 mM MOPS buffer with 2 mM DTT at a sample concentration of 1 mg/mL. Absolute fluorescence quantum yields were measured using an absolute photoluminescence quantum yield spectrometer (FS5, Edinburgh).

[2] = Dependence of […]s on Mg2+ and ATP (fluorescence intensity); format: biochemical; settings: Mg+ +
Excerpt: Ligand specificity is an important biosensors feature. Generally, the NRPS A domains have high specificity for their substrates because they are the first “gatekeeper” of NRPSs and ensure that the correct monomers are activated and thioesterified[32],[33]. […] Twenty proteinogenic amino acids were used to test the ligand specificity of […]s. […] We also investigated the dependence of […]s on Mg^2+ and ATP (Supplementary Fig. 4).
Supplementary Fig. 4 Dependence of GEC FINDER s on Mg2+ and ATP . a-j, Fluore scence intensities of
GECF IN DERs in the absence of any substra te, in the pre sence of Mg2+ alone, ATP alone, both Mg2+ and ATP, Mg2+
and ATP with re spective substra tes. Mg2+ concentra tion was 2.5 mM, and ATP concentra tion was 1 mM. a, 100 μM
data are provided as a Source Data file.

## N[C@@H](CC(=O)O)C(=O)O [Asp]
[1]
  fluorescence response of GECFINDER to each substrate, AVE of 3 repeats: 0.02069

## N[C@@H](CS)C(=O)O [Cys]
[1]
  fluorescence response of GECFINDER to each substrate, AVE of 3 repeats: -0.0008412

## N[C@@H](Cc1ccc(O)cc1)C(=O)O [tyrosine]
[2]; Supplementary Fig. 4 i, ATP +, tyrosine +
  fluorescence intensity, AVE of 3 repeats: 9237.33

## N=C(N)NCCC[C@H](N)C(=O)O [Arg]
[1]
  fluorescence response of GECFINDER to each substrate, AVE of 3 repeats: 0.01953

## NCCCC[C@H](N)C(=O)O [Lys]
[1]
  fluorescence response of GECFINDER to each substrate, AVE of 3 repeats: -0.005837

## NCC(=O)O [Gly]
[1]
  fluorescence response of GECFINDER to each substrate, AVE of 3 repeats: 0.007359

## N[C@@H](CC(=O)O)c1ccccc1 [S-β-phenylalanine]
[2]; Supplementary Fig. 4 h, ATP +, S-β-phenylalanine +
  fluorescence intensity, AVE of 3 repeats: 22066

## CC(C)[C@H](N)C(=O)O [Val]
[1]
  fluorescence response of GECFINDER to each substrate, AVE of 3 repeats: -0.02124

## C[C@H](N)C(=O)O [Ala]
[1]
  fluorescence response of GECFINDER to each substrate, AVE of 3 repeats: 0.02842

## N[C@@H](Cc1c[nH]cn1)C(=O)O [histidine]
[2]; Supplementary Fig. 4 f, ATP +, histidine +
  fluorescence intensity, AVE of 3 repeats: 33756

## CC[C@H](C)[C@H](N)C(=O)O [isoleucine]
[2]; Supplementary Fig. 4 e, ATP +, isoleucine +
  fluorescence intensity, AVE of 3 repeats: 15546

## N[C@@H](Cc1c[nH]c2ccccc12)C(=O)O [Trp]
[1]
  AVE of Repeat 1-3, sensor signal with ligand (Supplementary Fig. 7 c): 11938.7
  fluorescence response of GECFINDER to each substrate, AVE of 3 repeats: -0.01712

## O=C(O)[C@@H]1CCCN1 [proline]
[2]; Supplementary Fig. 4 d, ATP +, proline +
  fluorescence intensity, AVE of 3 repeats: 54621.3

## C[C@@H](O)[C@H](N)C(=O)O [Thr]
[1]
  fluorescence response of GECFINDER to each substrate, AVE of 3 repeats: -0.00888

## N[C@@H](Cc1ccccc1)C(=O)O [phenylalanine]
[2]; Supplementary Fig. 4 b, ATP +, phenylalanine +
  fluorescence intensity, AVE of 3 repeats: 39284.7
[2]; Supplementary Fig. 4 j, ATP +, phenylalanine +
  fluorescence intensity, AVE of 3 repeats: 31788

## CSCC[C@H](N)C(=O)O [Met]
[1]
  AVE of Repeat 1-3, sensor signal with ligand (Supplementary Fig. 7 c): 12345.3
  fluorescence response of GECFINDER to each substrate, AVE of 3 repeats: 0.1232

## N[C@@H](CO)C(=O)O [Ser]
[1]
  fluorescence response of GECFINDER to each substrate, AVE of 3 repeats: -0.004319

## [Mg+2] [Mg+]
[2]; Supplementary Fig. 4 a, ATP -, 4-coumaric acid -
  fluorescence intensity, AVE of 3 repeats: 2849
[2]; Supplementary Fig. 4 b, ATP -, phenylalanine -
  fluorescence intensity, AVE of 3 repeats: 6591
[2]; Supplementary Fig. 4 c, ATP -, glutamine -
  fluorescence intensity, AVE of 3 repeats: 17660
[2]; Supplementary Fig. 4 e, ATP -, isoleucine -
  fluorescence intensity, AVE of 3 repeats: 12580
[2]; Supplementary Fig. 4 f, ATP -, histidine -
  fluorescence intensity, AVE of 3 repeats: 26018
[2]; Supplementary Fig. 4 g, ATP -, leucine -
  fluorescence intensity, AVE of 3 repeats: 6350.33
[2]; Supplementary Fig. 4 i, ATP -, tyrosine -
  fluorescence intensity, AVE of 3 repeats: 5977
[2]; Supplementary Fig. 4 j, ATP -, phenylalanine -
  fluorescence intensity, AVE of 3 repeats: 7671.67
[2]; Supplementary Fig. 4 h, ATP -, S-β-phenylalanine -
  fluorescence intensity, AVE of 3 repeats: 5046.33
[2]; Supplementary Fig. 4 d, ATP -, proline -
  fluorescence intensity, AVE of 3 repeats: 43559.3

## NC(=O)C[C@H](N)C(=O)O [Asn]
[1]
  fluorescence response of GECFINDER to each substrate, AVE of 3 repeats: 0.01237

## NC(=O)CC[C@H](N)C(=O)O [Gln]
[1]
  fluorescence response of GECFINDER to each substrate, AVE of 3 repeats: 0.009843
